Converted amounts (≈) assume the structure as drawn. Like-named read-outs stand apart in the source and are kept apart here. Square brackets hold non-standard residues; d marks the D form. Peptide text beside a SMILES is read from it. Nspe = C[C@H](NCC(=O)O)c1ccccc1; Nlys = NCCCCNCC(=O)O
Key:
E. faecium mic80 (VRE) = experiment: microbe, parasite or virus in culture
Summary of the method: (§1)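 Agents were diluted serially at 10x in acetic acid/BSA, added to Mueller Hinton medium, then inoculated with bacteria at 2–7 x 10^5 CFU/mL. Plates were incubated overnight at 37°C and scored for growth.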

P. aeruginosa 198 (MDR) = experiment: microbe, parasite or virus in culture
Summary of the method: as §1

[1] = test system: K. pneumonia 63575 (ESBL); experiment: microbe, parasite or virus in culture
Summary of the method: as §1

[2] = test system: P. aeruginosa H1027 (MDR); experiment: microbe, parasite or virus in culture
Summary of the method: as §1

[3] = test system: P. aeruginosa LES400 (MDR); experiment: microbe, parasite or virus in culture
Summary of the method: as §1

[4] = test system: E. cloacae 218R Class C β-lactamase; experiment: microbe, parasite or virus in culture
Summary of the method: as §1

E. faecalis W61950 (VRE) = experiment: microbe, parasite or virus in culture
Summary of the method: as §1

[5] = test system: P. aeruginosa H103 (wild type); experiment: microbe, parasite or virus in culture
Summary of the method: as §1

[6] = test system: K. pneumonia 61962 (ESBL); experiment: microbe, parasite or virus in culture
Summary of the method: as §1

E. faecalis F43559 (VRE) = experiment: microbe, parasite or virus in culture
Summary of the method: as §1

S. aureus C623 (MRSA) = experiment: microbe, parasite or virus in culture
Summary of the method: as §1

E. faecium T62764 (VRE) = experiment: microbe, parasite or virus in culture
Summary of the method: as §1

[7] = test system: P. aeruginosa H1030 (MDR); experiment: microbe, parasite or virus in culture; conditions: P. aeruginosa H1030 (MDR)
Summary of the method: as §1

E. coli 64771 (ESBL) = experiment: microbe, parasite or virus in culture
Summary of the method: as §1

E. faecalis ATCC29212 = experiment: microbe, parasite or virus in culture
Summary of the method: as §1

E. coli 63103 (ESBL) = experiment: microbe, parasite or virus in culture
Summary of the method: as §1

P. aeruginosa 9 (MDR) = experiment: microbe, parasite or virus in culture
Summary of the method: as §1

P. maltophilia ATCC13637 = experiment: microbe, parasite or virus in culture
Summary of the method: as §1

S. aureus ATCC25923 = experiment: microbe, parasite or virus in culture
Summary of the method: as §1

P. aeruginosa 213 (MDR) = experiment: microbe, parasite or virus in culture
Summary of the method: as §1

NIH 3T3 cells = experiment: Metabolic activity, MTS assay; assay type: cell-based, mouse
Experimental: NIH 3T3 mouse fibroblast cells were cultured in complete Dulbecco’s Modified Eagle’s Media. A peptoid solution plate (100 µL per well) was prepared by serial dilution of aqueous peptoid stock solutions in Hank’s balanced salt solution. A day-old cell monolayer was washed thoroughly with Hank’s balanced salt solution and replenished with 100 µL Hank’s balanced salt solution per well. Peptoid solutions were transferred onto the day-old cell monolayers, which contained approximately 5000 cells per well. […] The average of six replicate trials is reported.

E. coli ATCC 35218 = assay type: cell-based
Summary of the method: (§2)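 MICs determined by 2:1 serial broth microdilution in cation-adjusted Mueller-Hinton broth per CLSI M7-A6, using inoculum at 1 x 10^6 CFU/mL mixed 1:1 with peptoid solution. Three independent replicates, each with two parallel trials.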

B. subtilis ATCC 6633 = assay type: cell-based
Summary of the method: as §2

erythrocytes = experiment: Hemolytic activity (HD10/HD50); assay type: cell-based
Text: Table 1 Characteristics of antimicrobial peptoids, screened for activity against B. subtilis and E. coli bacterial strains. | column: HD10 / HD50

[8] = E. cloacae 218R Class C β-lactamase

## H-(NLys-Npm-Npm)4-NH2 [Peptoid 1ach]
E. faecium mic80 (VRE); E. faecium mic80 (VRE)
  MIC: 4 µg/mL
P. aeruginosa 198 (MDR); P. aeruginosa 198 (MDR)
  MIC: 8 µg/mL
[1]; K. pneumonia 63575 (ESBL)
  MIC: 64 µg/mL
[2]; P. aeruginosa H1027 (MDR)
  MIC: 2 µg/mL
[3]; P. aeruginosa LES400 (MDR)
  MIC: 4 µg/mL
[4]; [8]
  MIC: 16 µg/mL
E. faecalis W61950 (VRE); E. faecalis W61950 (VRE)
  MIC: 32 µg/mL
[5]; P. aeruginosa H103 (wild type)
  MIC: 4 µg/mL
[6]; K. pneumonia 61962 (ESBL)
  MIC: 128 µg/mL
E. faecalis F43559 (VRE); E. faecalis F43559 (VRE)
  MIC: 32 µg/mL
S. aureus C623 (MRSA); S. aureus C623 (MRSA)
  MIC: 4 µg/mL
E. faecium T62764 (VRE); E. faecium T62764 (VRE)
  MIC: 2 µg/mL
[7]
  MIC: 64 µg/mL
E. coli 64771 (ESBL); E. coli 64771 (ESBL)
  MIC: 8 µg/mL
E. faecalis ATCC29212; E. faecalis ATCC29212
  MIC: 8 µg/mL
E. coli 63103 (ESBL); E. coli 63103 (ESBL)
  MIC: 16 µg/mL
P. aeruginosa 9 (MDR); P. aeruginosa 9 (MDR)
  MIC: 64 µg/mL
P. maltophilia ATCC13637; P. maltophilia ATCC13637
  MIC: 4 µg/mL
S. aureus ATCC25923; S. aureus ATCC25923
  MIC: 4 µg/mL
P. aeruginosa 213 (MDR); P. aeruginosa 213 (MDR)
  MIC: 8 µg/mL
NIH 3T3 cells; NIH 3T3 cells, MTS assay, 3 hours
  ID50 (inhibitory dose, metabolic activity): 16 µM
E. coli ATCC 35218
  MIC E. coli: 12.5 µM
B. subtilis ATCC 6633
  MIC B. subtilis: 1.6 µM
erythrocytes
  HD10 (hemolytic activity): 183
  HD50 (hemolytic activity): > 200

## C[C@H](c1ccccc1)N(CC(N)=O)C(=O)CN(C(=O)CN(CCCCN)C(=O)CN(C(=O)CN(C(=O)CN(CCCCN)C(=O)CN(C(=O)CN(C(=O)CN(CCCCN)C(=O)CN(C(=O)CN(C(=O)CNCCCCN)[C@@H](C)c1ccccc1)[C@H](C)c1ccccc1)[C@@H](C)c1ccccc1)[C@H](C)c1ccccc1)[C@@H](C)c1ccccc1)[C@H](C)c1ccccc1)[C@@H](C)c1ccccc1 [1-Nrpe3,6,9,12, H-(NLys-Nspe-Nrpe)4-NH2]
E. faecium mic80 (VRE); E. faecium mic80 (VRE)
  MIC: 4 µg/mL (≈ 2.2 µM)
P. aeruginosa 198 (MDR); P. aeruginosa 198 (MDR)
  MIC: 8 µg/mL (≈ 4.4 µM)
[1]; K. pneumonia 63575 (ESBL)
  MIC: 16 µg/mL (≈ 8.79 µM)
[2]; P. aeruginosa H1027 (MDR)
  MIC: 4 µg/mL (≈ 2.2 µM)
[3]; P. aeruginosa LES400 (MDR)
  MIC: 4 µg/mL (≈ 2.2 µM)
[4]; [8]
  MIC: 4 µg/mL (≈ 2.2 µM)
E. faecalis W61950 (VRE); E. faecalis W61950 (VRE)
  MIC: 8 µg/mL (≈ 4.4 µM)
[5]; P. aeruginosa H103 (wild type)
  MIC: 8 µg/mL (≈ 4.4 µM)
[6]; K. pneumonia 61962 (ESBL)
  MIC: 8 µg/mL (≈ 4.4 µM)
E. faecalis F43559 (VRE); E. faecalis F43559 (VRE)
  MIC: 4 µg/mL (≈ 2.2 µM)
S. aureus C623 (MRSA); S. aureus C623 (MRSA)
  MIC: 4 µg/mL (≈ 2.2 µM)
E. faecium T62764 (VRE); E. faecium T62764 (VRE)
  MIC: 1 µg/mL (≈ 0.55 µM)
[7]
  MIC: 8 µg/mL (≈ 4.4 µM)
E. coli 64771 (ESBL); E. coli 64771 (ESBL)
  MIC: 4 µg/mL (≈ 2.2 µM)
E. faecalis ATCC29212; E. faecalis ATCC29212
  MIC: 4 µg/mL (≈ 2.2 µM)
E. coli 63103 (ESBL); E. coli 63103 (ESBL)
  MIC: 4 µg/mL (≈ 2.2 µM)
P. aeruginosa 9 (MDR); P. aeruginosa 9 (MDR)
  MIC: 32 µg/mL (≈ 17.6 µM)
P. maltophilia ATCC13637; P. maltophilia ATCC13637
  MIC: 2 µg/mL (≈ 1.1 µM)
S. aureus ATCC25923; S. aureus ATCC25923
  MIC: 4 µg/mL (≈ 2.2 µM)
P. aeruginosa 213 (MDR); P. aeruginosa 213 (MDR)
  MIC: 8 µg/mL (≈ 4.4 µM)
E. coli ATCC 35218
  MIC E. coli: 6.3 µM (≈ 11.5 µg/mL)
B. subtilis ATCC 6633
  MIC B. subtilis: 1.6 µM (≈ 2.91 µg/mL)
erythrocytes; erythrocytes, first value of HD10 / HD50 cell
  HD10 (hemolytic activity): 16
erythrocytes; erythrocytes, second value of HD10 / HD50 cell
  HD50 (hemolytic activity): 67

## C[C@H](NCC(=O)N(CC(=O)N(CCCCN)CC(=O)N(CC(=O)N(CCCCN)CC(=O)N(CC(=O)N(CCCCN)CC(=O)N(CC(=O)N(CC(=O)N(CC(=O)N(CC(=O)N(CCCCN)CC(N)=O)[C@@H](C)c1ccccc1)[C@@H](C)c1ccccc1)[C@@H](C)c1ccccc1)[C@@H](C)c1ccccc1)[C@@H](C)c1ccccc1)[C@@H](C)c1ccccc1)[C@@H](C)c1ccccc1)c1ccccc1 [Peptoid 1scr, H-(Nspe)2-(NLys-Nspe)3-(Nspe)3-NLys-NH2] (H-[Nspe][Nspe][Nlys][Nspe][Nlys][Nspe][Nlys][Nspe][Nspe][Nspe][Nspe][Nlys]-NH2)
E. faecium mic80 (VRE); mic80 (VRE)
  MIC: 8 µg/mL (≈ 4.4 µM)
P. aeruginosa 198 (MDR); 198 (MDR)
  MIC: 32 µg/mL (≈ 17.6 µM)
[1]
  MIC: 64 µg/mL (≈ 35.2 µM)
[2]; H1027 (MDR)
  MIC: 4 µg/mL (≈ 2.2 µM)
[3]; LES400 (MDR)
  MIC: 16 µg/mL (≈ 8.79 µM)
[4]; 218R Class C β-lactamase
  MIC: 32 µg/mL (≈ 17.6 µM)
E. faecalis W61950 (VRE); W61950 (VRE)
  MIC: 32 µg/mL (≈ 17.6 µM)
[5]; H103 (wild type)
  MIC: 16 µg/mL (≈ 8.79 µM)
[6]
  MIC: 128 µg/mL (≈ 70.4 µM)
E. faecalis F43559 (VRE); F43559 (VRE)
  MIC: 8 µg/mL (≈ 4.4 µM)
S. aureus C623 (MRSA); C623
  MIC: 8 µg/mL (≈ 4.4 µM)
E. faecium T62764 (VRE); T62764 (VRE)
  MIC: 2 µg/mL (≈ 1.1 µM)
[7]
  MIC: 64 µg/mL (≈ 35.2 µM)
E. coli 64771 (ESBL); 64771 (ESBL)
  MIC: 16 µg/mL (≈ 8.79 µM)
E. faecalis ATCC29212; ATCC29212
  MIC: 8 µg/mL (≈ 4.4 µM)
E. coli 63103 (ESBL); 63103 (ESBL)
  MIC: 64 µg/mL (≈ 35.2 µM)
P. aeruginosa 9 (MDR); 9 (MDR)
  MIC: 256 µg/mL (≈ 141 µM)
P. maltophilia ATCC13637; ATCC13637
  MIC: 2 µg/mL (≈ 1.1 µM)
S. aureus ATCC25923; ATCC25923
  MIC: 8 µg/mL (≈ 4.4 µM)
P. aeruginosa 213 (MDR); 213 (MDR)
  MIC: 16 µg/mL (≈ 8.79 µM)
NIH 3T3 cells
  ID50 (inhibitory dose, metabolic activity): 8.5 µM
E. coli ATCC 35218
  MIC E. coli: 6.3 µM (≈ 11.5 µg/mL)
erythrocytes
  HD10 (hemolytic activity): 64
  HD50 (hemolytic activity): > 200

Reference: PMC4744035, “In Vivo, In Vitro, and In Silico Characterization of Peptoids as Antimicrobial Agents” (PLoS ONE, 2016)
